Reference: publication PMC7946963, “Phosphorylation regulates the binding of autophagy receptors to FIP200 Claw domain for selective autophagy initiation” (Nature Communications, 2021)
Blank lines part the entries; values can stand above or below the molecule they belong to. Peptide text beside a SMILES is read from it.

Key:
[1] = target: T1, FIP200 Claw domain (residues 1490–1594) (Homo sapiens, UniProt Q8TDY2); test: Fluorescence polarization (FP) binding assay, FITC-peptide titrated with FIP200 Claw; settings: N-terminally FITC-labeled peptide (~0.25 μM) titrated with FIP200 Claw (residues 1490–1594), 20 mM Tris pH 7.9, 100 mM NaCl, 1 mM DTT, 25 °C, one-site binding model, performed in triplicate, read-out: Kd (fitted dissociation constant with standard error)
T1 construct: N-terminal Trx-tag/His6-tag or His6-tag/SUMO-tag (vector for this fragment not specified) (N, cleaved yes); made in house; host or cells: E. coli BL21 (DE3)
T1 sequence (Q8TDY2 1490-1594): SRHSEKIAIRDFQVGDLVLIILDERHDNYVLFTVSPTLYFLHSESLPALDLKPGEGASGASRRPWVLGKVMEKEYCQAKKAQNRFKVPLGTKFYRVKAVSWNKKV
Description: Fluorescence anisotropy binding assays were performed on the SpectraMax i3x Multi-Mode Detection Platform from Molecular Devices, using a 485 nm excitation filter and a 535 nm emission filter. Peptides were labeled with fluorescein isothiocyanate isomer I (Sigma-Aldrich) at their N-terminals. […] The Kd values were obtained by fitting the titration curves with the classical one-site binding model using GraphPad Prism 6 software.

[2] = system: different ATG8 proteins (LC3A, LC3B, LC3C, GABARAP, GABARAPL1, GABARAPL2); test: ITC-based measurements of ATG16L1 FIR with ATG8 proteins; settings: one-site binding model, peer review file figure
[3] = system: all six mammalian ATG8 orthologues; test: Analytical gel filtration chromatography, statement over all ATG8 orthologues; format: binding; settings: qualitative analytical gel filtration chromatography; Supplementary Figs. 20 and 21
Description: (§1) Purified proteins were loaded on to a […] 10/300 GL column (GE Healthcare) equilibrated with a buffer containing 20 mM Tris-HCl (pH 7.9), 100 mM NaCl and 1 mM DTT. Analytical gel filtration chromatography was carried out on an AKTA FPLC system (GE Healthcare). The fitting results were further output to the Origin 8.5 software and aligned with each other.

[4] = system: FIP200 Claw (FIP200(1450–1594)); test: Analytical gel filtration chromatography with FIP200 Claw; format: binding, human; settings: for interaction of CCPG1 FIR2 variant with FIP200 Claw (in words): analytical gel filtration chromatography and fluorescence spectroscopy-based analyses, Supplementary Fig. 10; for effect of point mutation in Optineurin(169–185) S177E on the interaction with FIP200 (in words): analytical gel filtration chromatography, Supplementary Fig. 16; for interaction of Optineurin fragment with FIP200 (in words): analytical gel filtration chromatography with FIP200(1450–1594), Fig. 3b, c, Supplementary Fig. 15
Description: as §1

[5] = system: FIP200 Claw Y1564S mutant; test: Analytical gel filtration chromatography with FIP200 Y1564S mutant; format: binding, human; settings: Supplementary Fig. 16
Description: as §1

[6] = system: FIP200 Claw R1573E mutant; test: Analytical gel filtration chromatography with FIP200 R1573E mutant; format: binding, human; settings: Supplementary Fig. 16
Description: as §1

[7] = system: FIP200 Claw F1574Q mutant; test: Analytical gel filtration chromatography with FIP200 F1574Q mutant; format: binding, human; settings: Supplementary Fig. 16
Description: as §1

[8] = system: FIP200 Claw K1569A mutant; test: Analytical gel filtration chromatography with FIP200 K1569A mutant; format: binding, human; settings: Supplementary Fig. 16
Description: as §1

[9] = system: FIP200 Claw; settings: cited from earlier work
Excerpt: Previous studies have well established a critical role of the FIP200 subunit in the ULK complex for associating with other autophagic factors, especially some autophagy receptors such as CCPG1, NDP52, and P62[30],[49]–[51].

Kd [1]: 11.5 ± 1.74 µM
Molecule: CC[C@H](C)[C@H](NC(=O)[C@H](CCC(=O)O)NC(=O)[C@@H](NC(=O)[C@H](Cc1ccccc1)NC(=O)[C@H](COP(=O)(O)O)NC(=O)[C@H](CC(=O)O)NC(=O)[C@H](CCC(=O)O)NC(=O)[C@H](CO)NC(=O)[C@@H](N)CO)C(C)C)C(=O)N[C@@H](CCCNC(=N)N)C(=O)N[C@@H](CCSC)C(=O)N[C@@H](C)C(=O)N[C@@H](CCC(=O)O)C(=O)O [p-Optineurin LIR] (HELM PEPTIDE1{S.S.E.D.[O=C([C@H](COP(=O)(O)O)N[*:1])[*:2]].F.V.E.I.R.M.A.E}$$$$V2.0)

Molecule: ATG16L1 FIR: ATG16L1 FIR (residues 235-247), FIP200-interacting region of ATG16L1 (EQDDDIEVIVDET; UniProt Q676U5 235-247, looked up, fragment)
binding to different ATG8 proteins (in words) [2]: can directly bind

Molecule: CCPG1 FIR2 S104E: recombinant phosphomimetic S104E mutant of CCPG1 FIR2 (residues 99–113) (TASDDEDIVTLEPPK)
interaction with all six mammalian ATG8 orthologues (in words) [3]: can directly interact | interaction of CCPG1 FIR2 variant with FIP200 Claw (in words) [4]: good abilities to interact

Molecule: D105A: D105A point mutant of CCPG1 FIR2 (TASDDSAIVTLEPPK)
interaction of CCPG1 FIR2 variant with FIP200 Claw (in words) [4]: significantly decrease or essentially disrupt

Molecule: D176R: D176R mutation of the phosphomimetic Optineurin(169–185) S177E mutant (NSSGSSEREFVEIRMAE)
effect of point mutation in Optineurin(169–185) S177E on the interaction with FIP200 (in words) [4]: significantly attenuate or completely abolish

Molecule: F178Q: F178Q mutation of the phosphomimetic Optineurin(169–185) S177E mutant (NSSGSSEDEQVEIRMAE)
effect of point mutation in Optineurin(169–185) S177E on the interaction with FIP200 (in words) [4]: significantly attenuate or completely abolish

Molecule: I106S: I106S point mutant of CCPG1 FIR2 (TASDDSDSVTLEPPK)
interaction of CCPG1 FIR2 variant with FIP200 Claw (in words) [4]: significantly decrease or essentially disrupt

Molecule: L109A: L109A point mutant of CCPG1 FIR2 (TASDDSDIVTAEPPK)
interaction of CCPG1 FIR2 variant with FIP200 Claw (in words) [4]: significantly decrease or essentially disrupt

Molecule: Optineurin(33–168): recombinant human Optineurin fragment, residues 33–168
interaction of Optineurin fragment with FIP200 (in words) [4]: no obvious interactions

Molecule: Optineurin(169–185) S177E: recombinant phosphomimetic S177E mutant of Optineurin(169–185) that solely includes the LIR motif (NSSGSSEDEFVEIRMAE; UniProt Q96CV9 169-185, looked up, variant S177E)
interaction with FIP200 Y1564S mutant compared with wild type (in words) [5]: significantly attenuate or completely abolish | interaction with FIP200 R1573E mutant compared with wild type (in words) [6]: significantly attenuate or completely abolish | interaction with FIP200 F1574Q mutant compared with wild type (in words) [7]: significantly attenuate or completely abolish | interaction of Optineurin fragment with FIP200 (in words) [4]: can specifically interact | interaction with FIP200 K1569A mutant compared with wild type (in words) [8]: significantly attenuate or completely abolish

Molecule: Optineurin(186–209): recombinant human Optineurin fragment, residues 186–209
interaction of Optineurin fragment with FIP200 (in words) [4]: no obvious interactions

Molecule: T108A: T108A point mutant of CCPG1 FIR2 (TASDDSDIVALEPPK)
interaction of CCPG1 FIR2 variant with FIP200 Claw (in words) [4]: significantly decrease or essentially disrupt

Molecule: p-Optineurin(33–209): Optineurin(33–209) fragment phosphorylated in vitro by TBK1
interaction of Optineurin fragment with FIP200 (in words) [4]: much stronger binding ability

Molecule: phosphomimetic quadruple mutations (S349D, S365D, S366D, and S370D) of P62: P62 with phosphomimetic S349D, S365D, S366D, S370D mutations, from ref 49
enhancement of the binding affinity of P62 for FIP200 Claw by phosphomimetic mutations [9]: roughly by twofold
